# Results as given in patent publication US20250041298A1, “CDK4 INHIBITOR FOR THE TREATMENT OF CANCER” (Pfizer Inc., priority 2021, published 2025).
# Where “and” joins values, the source holds several entries; their conditions need not be identical. Equal values may be shown once. Read-outs that look alike come from different tables or passages of the source. Marks after values point to notes of the source that are not given here.
# Columns and labels:
# [1] = system: HR+, HER2+ BT474 breast cancer spheroids; experiment: Multicellular tumor spheroid growth inhibition (SGI), BT474; type: cell-based, human
# Description: The purpose of this example was to evaluate the combination effect of PF-07220060 and endocrine therapy in multicellular tumor spheroid growth inhibition (SGI). To model the characteristics and cellular behavior of human tumors, the activity of PF-07220060 was evaluated in three dimensional MCTS models of HR+ breast cancer and AR+ prostate cancer following PF-07220060 treatment as a single agent and in combination with fulvestrant • 1) in HR+, HER2-T47D breast cancer spheroids. • 2) in HR+, HER2+BT474 breast cancer spheroids, • 3) in BT474 spheroids, and • 4) in AR+ prostate carcinoma cell line (LNCaP) prostate cancer spheroids. Spheroids were treated with increasing concentrations of 100, 300, or 1000 nM PF-07220060 and compared to palbociclib at the clinically relevant concentration of 30 nM. Single agent PF-07220060 inhibited spheroid growth in a dose-dependent manner, with highest efficacy (86% SGI over the duration of treatment with 1000 nM) shown in the T47D BC spheroid model (Table 1). Combining 100 nM PF-07220060 with 1 nM fulvestrant in T47D cells increased SGI to 96% compared to either single agent alone (57 to 67% SGI with 100 nM PF-07220060 or 79% SGI with fulvestrant) (Table 1). BT474 spheroids were relatively less sensitive to PF-07220060 resulting in 52% SGI at 1000 nM.
# [2] = Phase 1/1b clinical trial: plasma pharmacokinetics of PF-07220060; type: in vivo, human; conditions: for Cmax / AUC / Tmax / half-life: human, plasma, po; for Tmax: median, read-out: Tmax; for half-life: arithmetic mean
# Description: Oral PF-07220060 was administered with at least 8 oz (240 mL) of water on an empty stomach (except during the food effect evaluation on Day-7 in Part 1D). No food or liquids other than water was consumed for 2 hours before and 1 hour following each dose throughout the study for BID dosing. No food or liquids other than water was consumed for 2 hours before and 2 hours after each dose throughout the study for QD dosing.
# In the ongoing Phase 1/1b Study, as of Aug. 30, 2022, preliminary PK data for PF-07220060 as monotherapy (Part 1A) and in combination with endocrine therapy (Part 1B and Part 1C) was available from 60 participants with advanced solid tumors. PF-07220060 was administered orally as a single agent at doses ranging from 100 to 500 mg BID, and in combination with either letrozole or fulvestrant at 300 to 400 mg BID. Available plasma concentration-time data of PF-07220060 were analyzed using noncompartmental methods.
# Preliminary noncompartmental PK analysis was conducted based on available samples collected from participants in the Study. […] Table 4 presents the summary of PK parameters for PF-07220060 as monotherapy, and in combination with letrozole or fulvestrant.
# [3] = 200 mg BID oral monotherapy (Part 1A), C1D15, geometric mean
# [4] = 300 mg BID oral + fulvestrant (Part 1C), C1D15, geometric mean
# [5] = 300 mg BID oral + letrozole (Part 1B), C1D15, geometric mean
# [6] = 300 mg BID oral monotherapy (Part 1A), C1D15, geometric mean
# [7] = 400 mg BID oral + fulvestrant (Part 1C), C1D15, geometric mean
# [8] = 400 mg BID oral + letrozole (Part 1B), C1D15, geometric mean
# [9] = 400 mg BID oral monotherapy (Part 1A), C1D15, geometric mean
structure (smiles),measurement,setting,value
"CC(C)n1c(C(C)(C)O)nc2c(F)cc(-c3nc(N[C@@H]4CCOC[C@H]4O)ncc3Cl)cc21 [PF-07220060, 1,5-anhydro-3-({5-chloro-4-[4-fluoro-2-(2-hydroxypropan-2-yl)-1-(propan-2-yl)-1H-benzimidazol-6-yl]pyrimidin-2-yl}amino)-2,3-dideoxy-D-threo-pentitol]",SGI,[1]; 100 nM single agent,9%
same,SGI,[1]; 300 nM single agent,16% and 26% and 20%
same,SGI,[1]; 1000 nM single agent,52%
same,CL/F,"[2]; 100 mg BID oral monotherapy (Part 1A), C1D15, geometric mean, n = 2",24.61 L/h
same,CL/F,[2]; [3],31.41 L/h
same,Cmin,[2]; [3],440 ng/mL
same,CL/F,[2]; [4],38.02 L/h
same,Cmin,[2]; [4],347.4 ng/mL
same,CL/F,[2]; [5],28.95 L/h
same,Cmin,[2]; [5],487.1 ng/mL
same,CL/F,[2]; [6],37.06 L/h
same,Cmin,[2]; [6],470.4 ng/mL
same,CL/F,[2]; [7],41.86 L/h
same,Cmin,[2]; [7],563.3 ng/mL
same,CL/F,[2]; [8],34.9 L/h
same,Cmin,[2]; [8],728.3 ng/mL
same,CL/F,[2]; [9],49.98 L/h
same,Cmin,[2]; [9],450.3 ng/mL
same,Cmin,"[2]; 500 mg BID oral monotherapy (Part 1A), C1D15, geometric mean",848.8 ng/mL
same,CL/F,"[2]; 500 mg BID oral monotherapy (Part 1A), C1D15, n = 1",40.1^a L/hr
same,Cmax,"[2]; 100 mg, 100 mg BID oral monotherapy (Part 1A), C1D1 post first dose, geometric mean",280 ng/mL
same,AUC,"[2]; 100 mg, 100 mg BID oral monotherapy (Part 1A), C1D1 post first dose, geometric mean, read-out: AUC12",1780 ng·h/mL
same,Tmax,"[2]; 100 mg, 100 mg BID oral monotherapy (Part 1A), C1D1 post first dose",2 h
same,AUC,"[2]; 100 mg, 100 mg BID oral monotherapy (Part 1A), C1D15, geometric mean, n = 2, read-out: AUCtau",4060 ng·h/mL
same,Cmax,"[2]; 100 mg, 100 mg BID oral monotherapy (Part 1A), C1D15 post multiple doses, geometric mean",617 ng/mL
same,Tmax,"[2]; 100 mg, 100 mg BID oral monotherapy (Part 1A), C1D15 post multiple doses",1 h
same,Cmax,"[2]; 200 mg, 200 mg BID oral monotherapy (Part 1A), C1D1 post first dose, geometric mean",454 ng/mL
same,AUC,"[2]; 200 mg, 200 mg BID oral monotherapy (Part 1A), C1D1 post first dose, geometric mean, read-out: AUC12",2330 ng·h/mL
same,Tmax,"[2]; 200 mg, 200 mg BID oral monotherapy (Part 1A), C1D1 post first dose",3.9 h
same,half-life,"[2]; 200 mg, 200 mg BID oral monotherapy (Part 1A), C1D15",5.1 h
same,AUC,"[2]; 200 mg, 200 mg BID oral monotherapy (Part 1A), C1D15, geometric mean, read-out: AUCtau",6370 ng·h/mL
same,Cmax,"[2]; 200 mg, 200 mg BID oral monotherapy (Part 1A), C1D15 post multiple doses, geometric mean",1010 ng/mL
same,Tmax,"[2]; 200 mg, 200 mg BID oral monotherapy (Part 1A), C1D15 post multiple doses",2.5 h
same,Cmax,"[2]; 300 mg BID oral + fulvestrant (Part 1C), C1D1 post first dose, geometric mean",849 ng/mL
same,AUC,"[2]; 300 mg BID oral + fulvestrant (Part 1C), C1D1 post first dose, geometric mean, read-out: AUC12",6130 ng·h/mL
same,Tmax,"[2]; 300 mg BID oral + fulvestrant (Part 1C), C1D1 post first dose",2 h
same,half-life,"[2]; 300 mg BID oral + fulvestrant (Part 1C), C1D15",5.7 h
same,AUC,"[2]; 300 mg BID oral + fulvestrant (Part 1C), C1D15, geometric mean, read-out: AUCtau",7890 ng·h/mL
same,Cmax,"[2]; 300 mg BID oral + fulvestrant (Part 1C), C1D15 post multiple doses, geometric mean",1190 ng/mL
same,Tmax,"[2]; 300 mg BID oral + fulvestrant (Part 1C), C1D15 post multiple doses",1 h
same,Cmax,"[2]; 300 mg BID oral + letrozole (Part 1B), C1D1 post first dose, geometric mean",989 ng/mL
same,AUC,"[2]; 300 mg BID oral + letrozole (Part 1B), C1D1 post first dose, geometric mean, read-out: AUC12",6440 ng·h/mL
